IC50 data for twelve compounds are collected here from EP3421483A1, “NOVEL STEROIDAL 17-BETA HETEROARYL COMPOUNDS AS INHIBITORS OF AKR1C3” (Bayer Pharma Aktiengesellschaft, priority 2017, dated 2019).

Structures are written as SMILES. Several values for one entry are separate records, joined by “and”; a condition that tells them apart may be missing. Equal entries are not always repeated. Where two headings read alike, the source gives them in different places.

The experiment has as its target T1, recombinant human AKR1C3 (aldo-keto reductase family 1 member C3) (Homo sapiens, UniProt P42330).
T1 construct: GST (cleaved yes); made in house; host or cells: E. coli
T1 sequence (P42330 1-323): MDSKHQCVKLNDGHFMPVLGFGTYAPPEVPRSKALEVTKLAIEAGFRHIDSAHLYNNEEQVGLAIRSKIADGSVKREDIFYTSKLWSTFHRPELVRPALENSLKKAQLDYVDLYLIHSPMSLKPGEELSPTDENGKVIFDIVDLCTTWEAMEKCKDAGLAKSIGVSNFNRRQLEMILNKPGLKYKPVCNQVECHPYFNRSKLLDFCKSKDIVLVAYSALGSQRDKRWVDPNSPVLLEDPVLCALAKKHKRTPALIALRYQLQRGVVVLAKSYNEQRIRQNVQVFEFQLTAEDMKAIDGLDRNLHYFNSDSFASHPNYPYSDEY
The experiment in a line: AKR1C3 enzyme inhibition assay (fluorescence; NADPH-dependent reduction of coumberone to coumberol). The format is biochemical. The protocol:
The AKR1C3-inhibitory action of the substances of this invention was measured in the AKR1C3 assay described in the paragraphs which follow. Essentially, the enzyme activity is measured by quantifying the coumberol formed from coumberone ([…]., and […]. AM. CHEM. SOC. 130, 14123-14128 (2008) […]., Bauman, D.R., Penning, T.M., and […]., Proc. Natl. Acad. Sci. USA 103, 13304 - 13309 (2006)). In this assay, the increase in the highly fluorescent coumberol can be determined by NADPH (nicotinamide adenine dinucleotide phosphate)-dependent reduction of the nonfluorescent coumberone by AKR1C3. […] NM_003739). This was expressed as the GST (glutathione S-transferase) fusion protein in E. coli and purified by means of glutathione-Sepharose affinity chromatography. The GST was removed by thrombin digestion with subsequent size exclusion chromatography (Dufort, I., Rheault, P., Huang, XF., Soucy, P., and Luu-The, V., Endocrinology 140, 568-574 (1999)). […] The concentration of the AKR1C3 was matched to the respective activity of the enzyme preparation and set such that the assay worked within the linear range. Typical concentrations were in the region of 1 nM. The reaction was stopped by adding 5 μl of a stop solution consisting of the inhibitor EM-1404 [F. Labrie et al. US Patent 6,541,463, 2003] (2 μM → final concentration in assay volume […] is 1 μM). Subsequently, the fluorescence of coumberol was measured at 520 nm (excitation at 380 nm) with a suitable measuring instrument (Pherastar from BMG Labtechnologies). […] As described, the pharmacological substances claimed were tested for their inhibitory effect on the AKR1C3 enzyme (see Table 3). […] Table 3: Inhibition of AKR1C3 by the inventive compounds (for some of the compounds, the values for two experimental determinations are reported)

Where [1] appears, read: 10 µM NADPH, 0.3 µM coumberone, 15 min preincubation, 90 min at 22°C, pH 7, 4-parameter fit, for some compounds two experimental determinations are given, read-out: AKR1C3 enzyme inhibition IC50.

With `CN(CCC(=O)O)C(=O)c1ccc2c(c1)CC[C@H]1[C@@H]3[C@H](O)C[C@H](c4cncc(F)c4)[C@@]3(C)CC[C@H]21` [Example 11, N-{[(15beta,17beta)-17-(5-fluoropyridin-3-yl)-15-hydroxyestra-1,3,5(10)-trien-3-yl]carbonyl}-N-methyl-beta-alanine], the half-maximal inhibitory concentration (IC50) under setting [1] was 0.0224 µM.

For `COc1cncc([C@H]2CC[C@H]3[C@@H]4CCc5cc(C(=O)N(C)CCC(=O)O)ccc5[C@H]4CC[C@]23C)c1` [Example 6, N-{[(17beta)-17-(5-methoxypyridin-3-yl)estra-1,3,5(10)-trien-3-yl]carbonyl}-N-methyl-beta-alanine], the 50% inhibitory concentration (IC50) under setting [1] was 0.0676 µM and 0.0821 µM.

For the compound `CN(CCC(=O)O)C(=O)c1ccc2c(c1)CC[C@H]1[C@@H]3[C@@H](O)C[C@H](c4cncc(F)c4)[C@@]3(C)CC[C@H]21` [Example 12, N-{[(15alpha,17beta)-17-(5-fluoropyridin-3-yl)-15-hydroxyestra-1,3,5(10)-trien-3-yl]carbonyl}-N-methyl-beta-alanine], the IC50 under setting [1] was found to be 0.188 µM.

As for `CN(CCC(=O)O)C(=O)c1ccc2c(c1)CC[C@@H]1[C@@H]2CC[C@]2(C)[C@@H](c3cncc(C(F)(F)F)c3)CC[C@@H]12` [Example 7, N-methyl-N-{[(17beta)-17-[5-(trifluoromethyl)pyridin-3-yl]estra-1,3,5(10)-trien-3-yl]carbonyl}-beta-alanine], under setting [1], the IC50 is 0.035 µM and 0.0441 µM.

`CN(CC(=O)O)C(=O)c1ccc2c(c1)CC[C@@H]1[C@@H]2CC[C@]2(C)[C@@H](c3cncc(C(F)(F)F)c3)CC[C@@H]12` [Example 8, N-methyl-N-[[(17beta)-17-[5-(trifluoromethyl)pyridin-3-yl]estra-1,3,5(10)-trien-3-yl]carbonyl}glycine]: the IC50 under setting [1] is 0.0485 µM and 0.0762 µM.

For `C[C@]12CC[C@@H]3c4ccc(C(=O)NCC(=O)O)cc4CC[C@H]3[C@@H]1CC[C@@H]2c1cncc(F)c1` [Example 2, N-[[(17beta)-17-(5-fluoropyridin-3-yl)estra-1,3,5(10)-trien-3-yl]carbonyl}glycine], the IC50 under setting [1] is 0.0264 µM and 0.0289 µM.

Turning to `C[C@]12CC[C@@H]3c4ccc(C(=O)NCCCC(=O)O)cc4CC[C@H]3[C@@H]1CC[C@@H]2c1cncc(F)c1` [Example 4, 4-({[(17beta)-17-(5-fluoropyridin-3-yl)estra-1,3,5(10)-trien-3-yl]carbonyl}amino)butanoic acid], the IC50 (read-out: AKR1C3 enzyme inhibition IC50, 10 µM NADPH, 0.3 µM coumberone, 15 min preincubation, 90 min at 22°C, pH 7, 4-parameter fit, for some compounds two experimental determinations are given) is 0.00779 µM and 0.00676 µM.

On to `C[C@]12CC[C@@H]3c4ccc(C(=O)NCCC(=O)O)cc4CC[C@H]3[C@@H]1CC[C@@H]2c1cncc(C(F)(F)F)c1` [Example 9, N-{[(17beta)-17-[5-(trifluoromethyl)pyridin-3-yl]estra-1,3,5(10)-trien-3-yl]carbonyl}-beta-alanine], for which, under setting [1], the IC50 is 0.0169 µM and 0.026 µM.

Turning to `CN(CCC(=O)O)C(=O)c1ccc2c(c1)CC[C@@H]1[C@@H]2CC[C@]2(C)[C@@H](c3cncnc3)CC[C@@H]12` [Example 10, N-methyl-N-{[(17beta)-17-(pyrimidin-5-yl)estra-1,3,5(10)-trien-3-yl]carbonyl}-beta-alanine], under setting [1], the IC50 is 0.271 µM and 0.282 µM.

`CC(C)(CNC(=O)c1ccc2c(c1)CC[C@@H]1[C@@H]2CC[C@]2(C)[C@@H](c3cncc(F)c3)CC[C@@H]12)C(=O)O` [Example 5, 3-([[(17beta)-17-(5-fluoropyridin-3-yl)estra-1,3,5(10)-trien-3-yl]carbonyl}amino)-2,2-dimethylpropanoic acid]: the IC50 was 0.0138 µM and 0.0131 µM.

Regarding `C[C@]12CC[C@@H]3c4ccc(C(=O)NCCC(=O)O)cc4CC[C@H]3[C@@H]1CC[C@@H]2c1cncc(F)c1` [Example 3, N-{[(17beta)-17-(5-fluoropyridin-3-yl)estra-1,3,5(10)-trien-3-yl]carbonyl}-beta-alanine], the IC50 under setting [1] was 0.00547 µM and 0.00935 µM.

As for `CN(CCC(=O)O)C(=O)c1ccc2c(c1)CC[C@@H]1[C@@H]2CC[C@]2(C)[C@@H](c3cncc(F)c3)CC[C@@H]12` [Example 1, N-{[(17beta)-17-(5-fluoropyridin-3-yl)estra-1,3,5(10)-trien-3-yl]carbonyl}-N-methyl-beta-alanine], the IC50 under setting [1] is 0.0192 µM and 0.0237 µM.
